In patent US7553858B2, “Combination of flupirtine and tramadol” (priority 2003, dated 2009):
Like-named read-outs stand apart in the source and are kept apart here. Marks after values point to notes of the source that are not given here.

How the values were obtained:
[1] = system: tramadol-induced emesis; test: Emetic response in conscious mongrel dogs; format: in vivo; conditions: Tramadol 14 mg/kg i.v., first 60 min, n = 5
Procedure: Mongrel dogs of both sexes weighing up to 15 kg were used. They were deprived of food overnight but allowed water ad libitum. Test compounds were administered to conscious animals by a slow infusion via the saphenous vein. Emetic responses (retches, strong salivation vomits with output) were monitored 60 min following drug administration (Borison and Wang, 1953). All dogs received 14 mg/kg tramadol i.v. repeatedly with an interval of one week. Positive responder dogs were selected and used in further experiments.

[2] = system: seizures induced by subconvulsive pentetrazol doses; test: Submaximal pentetrazol-induced seizures in mice; conditions: for Intensity (scored) of seizures / Number of animals with seizures: n = 10
Procedure: Male mice weighing 22-24 g were used. Animals housed in groups of 4 at standard conditions (temperature 22° C., humidity 40-60%) with food and water freely available. Lights were on from 06.00 a.m. to 06.00 p.m. The experiments were approved by the Animal Health Committee of the University which is responsible for the care and proper use of experimental animals.
Seizures were induced by intraperitoneal administration of pentetrazol at the subconvulsive dose of 30 mg/kg. The latency of the first seizure reaction, the seizure intensity and the number of animals with seizures were calculated for the first 10 min after i.p. injection of pentetrazol. Tramadol (hydrochloride) and flupirtine (maleate) were given intraperitoneally (15 min before pentetrazol administration). Drugs were prepared daily in 0.9% saline.

[3] = system: skeletal muscle tone; test: Skeletal muscle tone in conscious rats; format: in vivo, Sprague-Dawley rats
Procedure: The experimental set-up has been described in all details in a former publication (Nickel et al. Arzn. Forsch./Drug Res. 1997; 47; 1081-6). Briefly, the measurement of skeletal muscle tone was done by recording successively the resistance of flexor and extensor muscles which counteracted the forced straightening and bending of the foot in the ankle joint. Pressure changes induced by the movements of the foot were continuously registered. Signals were analyzed on a personal computer. A corresponding computer program calculated the resistance values of flexors and extensors of the foot over 10 min recording periods.
Male Sprague-Dawley rats weighing 200-220 g were used.
Drugs (tramadol hydrochloride, flupirtine maleate) were prepared in physiological saline daily and given intraperitoneally.
The statistical analysis of differences between calculated and measured effects was carried out by the one-way ANOVA. Asterisks (*) indicate the significance level p<0.01.

[4] = system: acetylcholine-induced writhing; test: Acetylcholine-induced writhing in mice; format: in vivo; conditions: Mus musculus
Procedure: Male mice weighing 22-24 g were maintained in groups of 4 at standard conditions (temperature 22±1° C., humidity: 40-50%, dark-light rhythm: 12/12 h) with food and water freely available.
Abdominal contractions (writhings) were induced by intraperitoneal (i.p.) injection of acetylcholine (ACh) (chloride, 5.5. mg/kg) in a volume of 10 ml/kg. Immediately thereafter, mice were placed in a plastic cage and the number of abdominal contractions (writhes) was counted for 10 min. The total number of abdominal contractions per animal and number of animals with contractions were calculated.
Drugs were prepared daily. All compounds were given orally. Tramadol hydrochloride and flupirtine maleate were administered 30 min before acetylcholine injection.
ED50 values were estimated either by the ratio of animals protected from writhings to the number of animals in groups or by the mean number of writhes in each group of animals. The values were calculated by using linear regression. The statistical analysis of differences between calculated and measured effects was carried out by the Kruscall-Wallis test. Asterisks (*) indicate the significance level p<0.05.

[5] = Tramadol 20 mg/kg i.p., 15 min before pentetrazol 30 mg/kg i.p.
[6] = Tramadol 40 mg/kg i.p., pentetrazol 30 mg/kg i.p.
[7] = Flupirtine 10 mg/kg i.p., pentetrazol 30 mg/kg i.p.
[8] = Flupirtine 20 mg/kg i.p., pentetrazol 30 mg/kg i.p.

Row | SMILES | Emetic response, % of dogs [1] [%] | Intensity (scored) of seizures [2, 5] | Number of animals with seizures [2, 5] | Intensity (scored) of seizures [2, 6] | Number of animals with seizures [2, 6] | effect on acute seizures induced by subconvulsive doses of pentetrazol (in words) ([2]; mice, i.p.) | Changes in muscle tonus (in % compared to placebo) ([3]; Tramadol 20 mg/kg i.p.) | Changes in muscle tonus (in % compared to placebo) ([3]; Tramadol 40 mg/kg i.p.) | ED50 ([4]; read-out: oral ED50-values calculated on the basis of animals protected from writhings) [mg/kg] | ED50 ([4]; read-out: oral ED50-values calculated on the basis of reduction of number of writhings) [mg/kg] | Intensity (scored) of seizures [2, 7] | Number of animals with seizures [2, 7] | Intensity (scored) of seizures [2, 8] | Number of animals with seizures [2, 8] | proconvulsive activity of tramadol, in the combination (in words) ([2]; mice, i.p., flupirtine with tramadol) | tramadol-induced skeletal muscle rigidity (in words) ([3]; Flupirtine 5-10 mg/kg i.p.) | ED50 ([4]; mice, oral, 30 min before ACh 5.5 mg/kg i.p., read-out: oral ED50-values calculated on the basis of animals protected from writhings) [mg/kg] | ED50 ([4]; mice, oral, 30 min before ACh 5.5 mg/kg i.p., read-out: oral ED50-values calculated on the basis of reduction of number of writhings) [mg/kg]
1 | COc1cccc([C@@]2(O)CCCC[C@H]2CN(C)C)c1 (racemic) [Tramadol, trans-(+/−)-2-[(Dimethylamino)methyl]-1-(3-methoxyphenyl)cyclohexanol] | 100 | 1.70* | 8* | 3.00* | 10* | proconvulsive effects | +12% | +47%* | 4.87 | 4.14 | – | – | – | – | – | – | – | –
2 | CCOC(=O)Nc1ccc(NCc2ccc(F)cc2)nc1N [Flupirtine] | – | – | – | – | – | – | – | – | – | – | 0.20 | 2 | 0.10 | 1 | almost completely attenuated | completely abolished | 27.2 | 21
